{
  "source": "ChEMBL document CHEMBL2176988",
  "about": "(J Med Chem, 2012)",
  "key": {"[1]": {"molecular_target": "T1, Neuronal acetylcholine receptor; alpha3/beta4 (Homo sapiens, UniProt P30926+P32297)", "T1 sequence (P30926 whole entry)": "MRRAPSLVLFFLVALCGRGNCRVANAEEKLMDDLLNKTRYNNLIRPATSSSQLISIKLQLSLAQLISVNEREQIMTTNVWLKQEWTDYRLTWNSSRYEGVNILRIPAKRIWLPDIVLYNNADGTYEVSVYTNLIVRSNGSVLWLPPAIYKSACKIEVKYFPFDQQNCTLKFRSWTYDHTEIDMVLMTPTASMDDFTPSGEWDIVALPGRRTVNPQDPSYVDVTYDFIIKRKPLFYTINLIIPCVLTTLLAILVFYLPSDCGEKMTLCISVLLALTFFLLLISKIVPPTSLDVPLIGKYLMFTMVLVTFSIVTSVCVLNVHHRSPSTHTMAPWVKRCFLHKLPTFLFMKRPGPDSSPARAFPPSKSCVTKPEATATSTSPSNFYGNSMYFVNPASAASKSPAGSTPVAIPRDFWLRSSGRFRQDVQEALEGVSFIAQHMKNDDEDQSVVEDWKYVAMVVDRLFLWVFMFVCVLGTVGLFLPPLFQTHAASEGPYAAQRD", "T1 sequence (P32297 whole entry)": "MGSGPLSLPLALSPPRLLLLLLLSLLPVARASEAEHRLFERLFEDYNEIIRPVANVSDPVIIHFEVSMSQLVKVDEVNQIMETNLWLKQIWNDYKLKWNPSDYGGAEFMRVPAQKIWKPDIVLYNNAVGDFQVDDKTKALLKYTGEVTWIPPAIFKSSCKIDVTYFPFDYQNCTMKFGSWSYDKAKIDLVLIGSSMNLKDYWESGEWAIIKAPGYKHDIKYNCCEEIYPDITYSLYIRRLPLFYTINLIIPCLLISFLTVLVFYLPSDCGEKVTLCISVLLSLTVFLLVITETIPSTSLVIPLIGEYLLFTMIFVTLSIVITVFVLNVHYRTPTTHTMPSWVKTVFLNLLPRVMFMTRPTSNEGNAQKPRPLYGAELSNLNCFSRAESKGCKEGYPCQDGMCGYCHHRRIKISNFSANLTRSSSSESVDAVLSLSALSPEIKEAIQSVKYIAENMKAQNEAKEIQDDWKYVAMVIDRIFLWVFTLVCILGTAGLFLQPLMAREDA", "assay": "Agonist activity at human alpha3beta4 nAChR expressed in CHO cells assessed as calcium flux by calcium4-based FLIPR assay", "assay_type": "functional, cell-based"}, "[2]": {"molecular_target": "T2, Neuronal acetylcholine receptor; alpha4/beta2 (Homo sapiens, UniProt P17787+P43681)", "T2 sequence (P17787 whole entry)": "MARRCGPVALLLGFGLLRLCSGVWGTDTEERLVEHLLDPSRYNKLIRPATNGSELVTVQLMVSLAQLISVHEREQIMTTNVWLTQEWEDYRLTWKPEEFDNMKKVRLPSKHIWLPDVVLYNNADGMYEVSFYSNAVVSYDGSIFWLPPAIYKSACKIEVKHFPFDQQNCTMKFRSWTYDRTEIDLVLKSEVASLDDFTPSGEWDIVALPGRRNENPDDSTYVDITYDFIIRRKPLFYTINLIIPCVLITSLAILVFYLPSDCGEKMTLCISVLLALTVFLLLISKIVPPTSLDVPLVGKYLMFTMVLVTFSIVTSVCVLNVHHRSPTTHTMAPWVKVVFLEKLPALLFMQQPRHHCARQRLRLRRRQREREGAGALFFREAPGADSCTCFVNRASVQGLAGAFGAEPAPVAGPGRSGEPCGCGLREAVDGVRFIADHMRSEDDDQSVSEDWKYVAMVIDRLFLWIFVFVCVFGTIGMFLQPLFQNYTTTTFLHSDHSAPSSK", "T2 sequence (P43681 whole entry)": "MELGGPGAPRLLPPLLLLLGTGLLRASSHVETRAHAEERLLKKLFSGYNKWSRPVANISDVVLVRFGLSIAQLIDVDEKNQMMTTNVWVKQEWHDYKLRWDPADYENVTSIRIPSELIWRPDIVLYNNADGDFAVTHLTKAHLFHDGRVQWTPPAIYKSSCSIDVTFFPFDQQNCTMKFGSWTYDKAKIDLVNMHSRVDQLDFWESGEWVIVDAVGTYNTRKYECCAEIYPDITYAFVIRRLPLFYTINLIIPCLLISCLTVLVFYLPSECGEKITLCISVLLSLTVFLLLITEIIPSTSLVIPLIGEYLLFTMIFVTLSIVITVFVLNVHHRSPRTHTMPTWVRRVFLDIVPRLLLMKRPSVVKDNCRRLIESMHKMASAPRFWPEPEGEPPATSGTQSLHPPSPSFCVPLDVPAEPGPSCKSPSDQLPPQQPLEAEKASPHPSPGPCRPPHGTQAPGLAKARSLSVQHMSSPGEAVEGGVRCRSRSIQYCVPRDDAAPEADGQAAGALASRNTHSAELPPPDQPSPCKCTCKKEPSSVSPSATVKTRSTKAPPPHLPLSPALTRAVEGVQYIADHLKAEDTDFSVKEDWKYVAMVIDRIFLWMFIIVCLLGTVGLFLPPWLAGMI", "assay": "Displacement of [3H]nicotine from alpha4beta2 nAChR in human SH-EP1 cells after 2 hrs by liquid scintillation assay", "assay_type": "cell-based"}, "[3]": {"molecular_target": "Neuronal acetylcholine receptor; alpha4/beta2 (Rattus norvegicus, UniProt P09483+P12390)", "sequence (P09483 whole entry)": "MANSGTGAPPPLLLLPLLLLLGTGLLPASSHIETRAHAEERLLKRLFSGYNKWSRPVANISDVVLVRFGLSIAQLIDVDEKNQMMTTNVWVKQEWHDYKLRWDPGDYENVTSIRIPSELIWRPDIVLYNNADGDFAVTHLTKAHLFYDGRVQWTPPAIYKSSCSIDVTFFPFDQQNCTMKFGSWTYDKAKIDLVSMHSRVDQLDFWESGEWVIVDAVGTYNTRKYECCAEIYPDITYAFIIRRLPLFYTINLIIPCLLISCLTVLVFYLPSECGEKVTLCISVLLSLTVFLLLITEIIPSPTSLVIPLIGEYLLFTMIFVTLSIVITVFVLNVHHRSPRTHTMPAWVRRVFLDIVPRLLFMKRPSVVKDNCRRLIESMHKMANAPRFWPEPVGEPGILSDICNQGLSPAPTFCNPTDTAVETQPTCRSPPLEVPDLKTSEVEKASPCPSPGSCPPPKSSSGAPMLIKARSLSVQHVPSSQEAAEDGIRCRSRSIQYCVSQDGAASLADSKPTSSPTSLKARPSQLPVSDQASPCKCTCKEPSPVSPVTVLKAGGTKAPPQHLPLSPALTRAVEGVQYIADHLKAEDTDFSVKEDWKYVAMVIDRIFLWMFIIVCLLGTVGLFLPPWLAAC", "sequence (P12390 whole entry)": "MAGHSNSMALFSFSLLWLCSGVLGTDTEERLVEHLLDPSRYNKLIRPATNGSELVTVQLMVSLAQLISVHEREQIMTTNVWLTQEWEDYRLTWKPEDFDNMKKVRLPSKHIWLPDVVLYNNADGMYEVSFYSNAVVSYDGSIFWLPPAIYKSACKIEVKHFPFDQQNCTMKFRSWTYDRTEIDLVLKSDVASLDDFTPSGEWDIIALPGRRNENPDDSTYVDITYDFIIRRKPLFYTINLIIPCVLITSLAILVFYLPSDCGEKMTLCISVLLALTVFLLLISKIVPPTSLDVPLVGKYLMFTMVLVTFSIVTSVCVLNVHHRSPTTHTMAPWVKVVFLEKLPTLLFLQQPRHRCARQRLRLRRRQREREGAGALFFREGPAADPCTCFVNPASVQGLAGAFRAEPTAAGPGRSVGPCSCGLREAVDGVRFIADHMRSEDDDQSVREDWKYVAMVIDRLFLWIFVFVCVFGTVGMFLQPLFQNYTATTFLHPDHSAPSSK", "assay": "Displacement of [3H]epibatidine from alpha4beta2 nAChR in Sprague-Dawley rat cortex after 2 hrs by liquid scintillation counting"}, "[4]": {"molecular_target": "T2, Neuronal acetylcholine receptor; alpha4/beta2", "assay": "Agonist activity at alpha4beta2 nAChR in human SH-EP1 cells assessed as calcium flux by calcium4-based FLIPR assay", "assay_type": "functional, cell-based"}, "[5]": {"molecular_target": "T2, Neuronal acetylcholine receptor; alpha4/beta2", "assay": "Apparent antagonist activity at alpha4beta2 nAChR in human SH-EP1 cells assessed as inhibition of nicotine-induced calcium flux by calcium4-based FLIPR assay", "assay_type": "functional, cell-based"}, "[6]": {"molecular_target": "Neuronal acetylcholine receptor subunit alpha-7 (Homo sapiens, UniProt P36544)", "sequence (P36544 whole entry)": "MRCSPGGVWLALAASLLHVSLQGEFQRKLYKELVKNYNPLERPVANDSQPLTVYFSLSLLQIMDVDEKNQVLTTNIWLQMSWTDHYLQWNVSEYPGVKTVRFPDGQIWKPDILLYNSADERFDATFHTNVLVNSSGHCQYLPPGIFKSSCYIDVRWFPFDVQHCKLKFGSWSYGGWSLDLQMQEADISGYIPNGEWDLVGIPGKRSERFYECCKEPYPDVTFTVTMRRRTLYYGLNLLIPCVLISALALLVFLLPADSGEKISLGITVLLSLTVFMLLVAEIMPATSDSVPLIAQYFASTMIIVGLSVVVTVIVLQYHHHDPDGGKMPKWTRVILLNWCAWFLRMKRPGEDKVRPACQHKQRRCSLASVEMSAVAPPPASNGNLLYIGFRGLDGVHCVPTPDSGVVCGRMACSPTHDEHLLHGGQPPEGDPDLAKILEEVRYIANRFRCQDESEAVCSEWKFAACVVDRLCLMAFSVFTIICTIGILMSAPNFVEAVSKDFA", "assay": "Displacement of [3H]epibatidine from human alpha7 nAChR expressed in CHO cells after 2 hrs by liquid scintillation counting", "assay_type": "cell-based"}, "[7]": {"molecular_target": "T2, Neuronal acetylcholine receptor; alpha4/beta2", "assay": "Apparent antagonist activity at alpha4beta2 nAChR in human SH-EP1 cells assessed as inhibition of nicotine-induced calcium flux by calcium4-based FLIPR assay relative to control", "assay_type": "functional, cell-based"}, "[8]": {"molecular_target": "T1, Neuronal acetylcholine receptor; alpha3/beta4", "assay": "Agonist activity at human alpha3beta4 nAChR expressed in CHO cells assessed as calcium flux by calcium4-based FLIPR assay relative to nicotine", "assay_type": "functional, cell-based"}, "[9]": {"molecular_target": "T2, Neuronal acetylcholine receptor; alpha4/beta2", "assay": "Agonist activity at alpha4beta2 nAChR in human SH-EP1 cells assessed as calcium flux by calcium4-based FLIPR assay relative to nicotine", "assay_type": "functional, cell-based"}, "[10]": {"molecular_target": "T1, Neuronal acetylcholine receptor; alpha3/beta4", "assay": "Displacement of [3H]epibatidine from human alpha3beta4 nAChR expressed in CHO cells after 2 hrs by liquid scintillation counting", "assay_type": "cell-based"}, "[11]": {"molecular_target": "T1, Neuronal acetylcholine receptor; alpha3/beta4", "assay": "Displacement of [3H]epibatidine from alpha3beta4 nAChR in human SH-SY5Y cells after 2 hrs by liquid scintillation counting", "assay_type": "cell-based"}},
  "data": [
    {"molecule": "O=C(c1ccc(Oc2ccccc2)cc1)N1CC2CNCC2C1", "note": "(stereo not drawn)", "values": [
      {"measurement": "EC50", "setting": "[1]", "result": 25, "unit": "µM"},
      {"measurement": "Ki", "setting": "[2]", "result": 0.019, "unit": "µM"},
      {"measurement": "Ki", "setting": "[3]", "result": 0.039, "unit": "µM"},
      {"measurement": "EC50", "setting": "[4]", "result": 51, "unit": "µM"},
      {"measurement": "IC50", "setting": "[5]", "result": 7.8, "unit": "µM"},
      {"measurement": "Ki", "setting": "[6]", "result": 13, "unit": "µM"},
      {"measurement": "Imax", "setting": "[7]", "result": 94, "unit": "%"},
      {"measurement": "Emax", "setting": "[8]", "result": 12, "unit": "%"},
      {"measurement": "Emax", "setting": "[9]", "result": 9, "unit": "%"},
      {"measurement": "Ki", "setting": "[10]", "result": 14, "unit": "µM"}
    ]},
    {"molecule": "CCOc1cncc(/C=C/CCNC)c1", "values": [
      {"measurement": "EC50", "setting": "[1]", "result": 20, "unit": "µM"},
      {"measurement": "Ki", "setting": "[2]", "result": 0.012, "unit": "µM"},
      {"measurement": "Ki", "setting": "[3]", "result": 0.006, "unit": "µM"},
      {"measurement": "EC50", "setting": "[4]", "result": 0.17, "unit": "µM"},
      {"measurement": "Ki", "setting": "[11]", "result": 7, "unit": "µM"},
      {"measurement": "Ki", "setting": "[6]", "result": 71, "unit": "µM"},
      {"measurement": "Emax", "setting": "[8]", "result": 10, "unit": "%"},
      {"measurement": "Emax", "setting": "[9]", "result": 57, "unit": "%"}
    ]}
  ]
}
